Assay [1] addresses T1, full-length RIIα (Mus musculus, UniProt P12367).
T1 construct: Full-length murine RIIα was expressed in E. coli BL21 (DE3); made in house; host or cells: E. coli BL21 (DE3)
As to the kind of experiment: Fluorescence anisotropy binding assay (Example 9). More on the design: species or system murine. As to conditions: for Kd: Table 8, truncated and substituted peptides, read-out: KD (nM) Rllα; for binding to RIIα, in words: compared with the unsubstituted peptide. Here is the method:
(§1) Each peptide was fluorescently labeled using a 25 mM solution of tetramethylrhodamine-5-maleimide (catalog number T-6027; Molecular Probes, Eugene, Oreg.) dissolved in DMSO. The peptides were labeled by incubating with a three-fold molar excess of the label for 16 hr at 4° C. in 20 mM Tris, pH 7.0 and 1 mM tris-(2-carboxyethyl) phosphine, hydrochloride (TCEP) (non-thiol reducing agent, Molecular Probes). The sample was quenched with 1 mM, β-mercaptoethanol to bind to any unreacted maleimide and diluted with 0.1% TFA for purification by HPLC. The labeled peptides were resolved using a C18 column with a water/acetonitrile gradient containing 0.1% TFA. The concentration of each peptide was determined by absorbance at 541 nm after diluting into 100% methanol and using an extinction coefficient of 91,000 M^−1 cm^−1 for absorbance of the rhodamine label at 541 nm (Molecular Probes Catalog). The peptides were stored at 4° C. in 50% acetonitrile.
(§2) Full-length murine RIIα was expressed in E. coli BL21 (DE3). Full-length bovine RIα was expressed in E. coli 222. The proteins were purified as previously described using a cAMP affinity resin (Hamuro et al. (2002) J. Mol. Biol., 321:703). The protein concentrations were determined using the following extinction coefficients at 280 nm, which were calculated using a standard concentration of protein calibrated using quantitative amino acid analysis: RIα 52,603 M^−1 cm^−1 and RIIα 62,456 M^−1 cm^−1. The proteins were stored at 4° C. in 50 mM MES pH 5.8, 50 mM NaCl, 2 mM EDTA, 2 mM EGTA, 2 mM DTT.
(§3) Binding of each fluorescently labeled peptide to the regulatory subunits was monitored using fluorescence anisotropy. RIα and RIIα were serially diluted beginning at 1 μM and 0.1 μM, respectively, into 10 mM HEPES pH 7.4, 0.15 M NaCl, 3 mM EDTA, 0.005% Surfactant P20 (Biacore) containing either 10 nM or 1 nM of fluorescently labeled peptide for RIα and RIIα, respectively. The samples were equilibrated for at least 1 hour at room temperature and fluorescence anisotropy monitored using a Fluoromax-2 (Jobin Yvon Horiba, SPEX Division, Edison, N.J.) equipped with Glan-Thompson polarizers. The rhodamine-labeled peptide was excited at 541 nm (5-10 nm bandpass) and emission monitored at 575 nm (5-10 nm bandpass). The anisotropy was calculated directly with the Fluoromax software using the following equation: r=(IVV−G*IVH)/(IVV+2G*IVH) (1) where r is the steady state anisotropy, IVV is the fluorescence intensity with the excitation and emission polarizers oriented in the vertical position (0° from normal), IVH is the fluorescence intensity with the excitation polarizer in the vertical position and the emission polarizer oriented in the horizontal position (90°) relative to the excitation polarizer, G is the monochromator grating factor which is equal to (IHV/IHH), with the first subscript indicating the position of the excitation polarizer and the second subscript indicating position of the emission polarizer. Three separate binding experiments were averaged and fit to a 1:1 binding model using the non-linear regression application in GraphPad Prism version 3.00 (GraphPad Software, San Diego, Calif.).
(In general: In fluorescence polarisation assays a small probe gives low polarisation when free and higher when bound to something large.)

Assay [2] concerns the target T2, full-length RIα (Bos taurus, UniProt P00514).
T2 construct: Full-length bovine RIα was expressed in E. coli 222; made in house; host or cells: E. coli 222
As to the kind of experiment: Fluorescence anisotropy binding assay (Example 9). More on the design: species or system bovine. As to conditions: for Kd: Table 8, truncated and substituted peptides, read-out: KD (nM) Rlα; for binding to RIα, in words: compared with the unsubstituted peptide. How it is done: as §1, §2, §3

Usually Kd stands for the constant that tells how readily two partners part at equilibrium.

Ends that are not written are not given here. Peptide text beside a SMILES is read from it. * marks the point of attachment. X1 = CN(C)c1ccc2c(c1)Oc1cc(N(C)C)ccc1C21OC(=O)c2cc(N3C(=O)CC(*)C3=O)ccc21

T2 sequence (P00514 whole entry): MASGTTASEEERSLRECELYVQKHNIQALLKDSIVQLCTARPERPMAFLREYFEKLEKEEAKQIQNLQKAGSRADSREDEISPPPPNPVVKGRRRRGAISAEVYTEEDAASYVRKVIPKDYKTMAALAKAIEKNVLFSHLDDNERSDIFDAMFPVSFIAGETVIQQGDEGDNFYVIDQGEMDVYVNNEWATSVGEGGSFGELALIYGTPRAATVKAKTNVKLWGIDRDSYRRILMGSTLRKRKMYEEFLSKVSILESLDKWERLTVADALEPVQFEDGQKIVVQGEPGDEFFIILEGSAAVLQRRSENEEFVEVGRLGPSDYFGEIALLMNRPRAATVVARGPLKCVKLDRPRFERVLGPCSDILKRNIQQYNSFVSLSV
T1 sequence (P12367 whole entry): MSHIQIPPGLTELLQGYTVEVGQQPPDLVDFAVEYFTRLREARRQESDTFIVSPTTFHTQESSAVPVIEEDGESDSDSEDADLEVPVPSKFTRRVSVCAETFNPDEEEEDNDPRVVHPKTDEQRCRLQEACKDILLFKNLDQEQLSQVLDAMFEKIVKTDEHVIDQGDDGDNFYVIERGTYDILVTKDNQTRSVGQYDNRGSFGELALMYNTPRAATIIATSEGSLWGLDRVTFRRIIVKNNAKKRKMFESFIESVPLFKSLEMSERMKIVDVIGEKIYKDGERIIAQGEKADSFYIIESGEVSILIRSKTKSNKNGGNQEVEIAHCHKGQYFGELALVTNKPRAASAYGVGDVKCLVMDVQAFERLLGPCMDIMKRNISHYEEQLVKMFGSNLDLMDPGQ

In the case of `CC[C@H](C)[C@H](NC(=O)[C@H](CCCCN)NC(=O)[C@H](Cc1c[nH]c2ccccc12)NC(=O)[C@H](C)NC(=O)[C@H](CC(C)C)NC(=O)[C@H](CCC(=O)O)NC(=O)[C@H](CCC(=O)O)NC(=O)[C@@H](N)Cc1ccccc1)C(=O)N[C@@H](C)C(=O)N[C@@H](CCCCN)C(=O)N[C@@H](CCSC)C(=O)N[C@H](C(=O)N[C@@H](Cc1c[nH]c2ccccc12)C(=O)N[C@@H](CO)C(=O)N[C@@H](CC(=O)O)C(=O)N[C@H](C(=O)N[C@@H](CCSC)C(=O)N[C@@H](CCC(N)=O)C(=O)N[C@@H](CCC(N)=O)C(=O)N[C@@H](CSC1CC(=O)N(c2ccc3c(c2)C(=O)OC32c3ccc(N(C)C)cc3Oc3cc(N(C)C)ccc32)C1=O)C(N)=O)C(C)C)[C@@H](C)CC` (stereo partly shown) [PV-37] (H-FEELAWKIAKMIWSDVMQQC(X1)-NH2), the dissociation constant Kd worked out at 150 nM in assay [1] and 19 nM in assay [2].
As to `CC[C@H](C)[C@H](NC(=O)[C@H](CCCCN)NC(=O)[C@H](Cc1c[nH]c2ccccc12)NC(=O)[C@H](C)NC(=O)[C@H](Cc1ccccc1)NC(=O)[C@H](CCC(=O)O)NC(=O)[C@H](CCC(=O)O)NC(=O)[C@@H](N)CCC(N)=O)C(=O)N[C@@H](C)C(=O)N[C@@H](CCCCN)C(=O)N[C@@H](CCSC)C(=O)N[C@H](C(=O)N[C@H](C(=O)N[C@@H](CO)C(=O)N[C@@H](CC(=O)O)C(=O)N[C@H](C(=O)N[C@@H](Cc1ccccc1)C(=O)N[C@@H](CCC(N)=O)C(=O)N[C@@H](CCC(N)=O)C(=O)N[C@@H](CSC1CC(=O)N(c2ccc3c(c2)C(=O)OC32c3ccc(N(C)C)cc3Oc3cc(N(C)C)ccc32)C1=O)C(N)=O)C(C)C)C(C)C)[C@@H](C)CC` (stereo partly shown) [PV-47] (H-QEEFAWKIAKMIVSDVFQQC(X1)-NH2), the Kd is 89 nM in assay [1] and 39 nM in assay [2].
Turning to `CC[C@H](C)[C@H](NC(=O)[C@H](CCCCN)NC(=O)[C@H](Cc1c[nH]c2ccccc12)NC(=O)[C@H](C)NC(=O)[C@H](Cc1ccccc1)NC(=O)[C@H](CCC(=O)O)NC(=O)[C@H](CCC(=O)O)NC(=O)[C@@H](N)CCC(N)=O)C(=O)N[C@@H](C)C(=O)N[C@@H](CCCCN)C(=O)N[C@@H](CCSC)C(=O)N[C@H](C(=O)N[C@H](C(=O)N[C@@H](CO)C(=O)N[C@@H](CC(=O)O)C(=O)N[C@H](C(=O)N[C@@H](Cc1ccccc1)C(=O)N[C@@H](CCC(N)=O)C(=O)N[C@@H](CCC(N)=O)C(=O)N[C@@H](CSC1CC(=O)N(c2ccc3c(c2)C(=O)OC32c3ccc(N(C)C)cc3Oc3cc(N(C)C)ccc32)C1=O)C(N)=O)C(C)C)[C@@H](C)CC)[C@@H](C)CC` (stereo partly shown) [PV-48] (H-QEEFAWKIAKMIISDVFQQC(X1)-NH2), the values for the Kd in assay [1] and in assay [2] were 124 nM and 12 nM, respectively.
For `CC[C@H](C)[C@H](NC(=O)[C@H](CCCCN)NC(=O)[C@H](Cc1c[nH]c2ccccc12)NC(=O)[C@H](C)NC(=O)[C@H](CC(C)C)NC(=O)[C@H](CCC(=O)O)NC(=O)[C@H](CCC(=O)O)NC(=O)[C@@H](N)Cc1ccccc1)C(=O)N[C@@H](C)C(=O)N[C@@H](CCCCN)C(=O)N[C@@H](CCSC)C(=O)N[C@H](C(=O)N[C@H](C(=O)N[C@@H](CO)C(=O)N[C@@H](CC(=O)O)C(=O)N[C@H](C(=O)N[C@@H](Cc1ccccc1)C(=O)N[C@@H](CCC(N)=O)C(=O)N[C@@H](CCC(N)=O)C(=O)N[C@@H](CSC1CC(=O)N(c2ccc3c(c2)C(=O)OC32c3ccc(N(C)C)cc3Oc3cc(N(C)C)ccc32)C1=O)C(N)=O)C(C)C)[C@@H](C)CC)[C@@H](C)CC` (stereo partly shown) [PV-49] (H-FEELAWKIAKMIISDVFQQC(X1)-NH2), the results for the equilibrium dissociation constant (Kd) in assay [1] and in assay [2] were 2.5 nM and 1.1 nM, respectively.
For the compound `CC[C@H](C)[C@H](NC(=O)[C@H](CCCCN)NC(=O)[C@H](Cc1c[nH]c2ccccc12)NC(=O)[C@H](C)NC(=O)[C@H](CC(C)C)NC(=O)[C@H](CCC(=O)O)NC(=O)[C@H](CCC(=O)O)NC(=O)[C@H](CCC(N)=O)NC(=O)[C@H](C)NC(=O)[C@H](CCC(=O)O)NC(=O)[C@H](CC(=O)O)NC(=O)[C@@H](NC(=O)[C@H](CC(N)=O)NC(=O)CNC(=O)[C@H](CCC(N)=O)NC(=O)[C@@H](N)C(C)C)[C@@H](C)O)C(=O)N[C@@H](C)C(=O)N[C@@H](CCCCN)C(=O)N[C@@H](CCSC)C(=O)N[C@H](C(=O)N[C@@H](Cc1c[nH]c2ccccc12)C(=O)N[C@@H](CO)C(=O)N[C@@H](CC(=O)O)C(=O)N[C@H](C(=O)N[C@@H](CCSC)C(=O)N[C@@H](CCC(N)=O)C(=O)N[C@@H](CCC(N)=O)C(=O)N[C@@H](CSC1CC(=O)N(c2ccc3c(c2)C(=O)OC32c3ccc(N(C)C)cc3Oc3cc(N(C)C)ccc32)C1=O)C(N)=O)C(C)C)[C@@H](C)CC` (stereo partly shown) [SEQ ID NO:111] (H-VQGNTDEAQEELAWKIAKMIWSDVMQQC(X1)-NH2), the figures for the Kd in assay [1] and in assay [2] were 83 nM and 120 nM, respectively.
As to `CC[C@H](C)[C@H](NC(=O)[C@H](CCCCN)NC(=O)[C@H](Cc1c[nH]c2ccccc12)NC(=O)[C@H](C)NC(=O)[C@H](CC(C)C)NC(=O)[C@H](CC(=O)O)NC(C)=O)C(=O)N[C@@H](C)C(=O)N[C@@H](CCCCN)C(=O)N[C@@H](CCSC)C(=O)N[C@H](C(=O)N[C@H](C(=O)N[C@@H](CO)C(=O)N[C@@H](CC(=O)O)C(=O)N[C@H](C(=O)N[C@@H](CCSC)C(=O)N[C@@H](CCC(N)=O)C(=O)N[C@@H](CCC(N)=O)C(=O)N[C@@H](CSC1CC(=O)N(c2ccc3c(c2)C(=O)OC32c3ccc(N(C)C)cc3Oc3cc(N(C)C)ccc32)C1=O)C(N)=O)C(C)C)C(C)C)[C@@H](C)CC` (stereo partly shown) [SEQ ID NO:112, Ac-DLAWKIAKMIVSDVMQQC] (Ac-DLAWKIAKMIVSDVMQQC(X1)-NH2), the Kd in assay [1] was 107 nM; in assay [2], 773 nM.
For “Ac-DLAWKIAKMIVSDVMQQ (listed as Homo sapiens) [SEQ ID NO:102]”, the “binding to RIIα, in words” value in assay [1] is “reduced binding”. In addition, the “binding to RIα, in words” value in assay [2] was “reduced binding”.
“VQGNTDEAQEELAWKIAKMIWSD[I/V]MQQ [SEQ ID NO:54]”: the “binding to RIIα, in words” value in assay [1] is given as “weakly”. Further, the “binding to RIα, in words” value in assay [2] was “binds tightly”.

(Values after US7432342B2, “Kinase anchor protein muteins, peptides thereof and related documents” (Sequenom, Inc., priority 2002, dated 2008).)
